What was measured:
corn = assay: Test C pre-/postemergence herbicide test; format: in vivo, Zea mays; settings: for Corn plant response rating: 500 g ai/ha
How it was run: (§1)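 Pre/post spray; non-phytotoxic solvent + surfactant. Post-timing 1–4 leaves, 2–18 cm. Read-out: visual % control vs untreated, day 12–14, greenhouse.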

large crabgrass [1] = assay: Test A pre-/postemergence herbicide test; format: in vivo, Digitaria sanguinalis
How it was run: (§2)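 Greenhouse injury scoring (0–100, complete control = 100) at approximately ten days follows simultaneous pre- and postemergence application. Soil received a directed spray after seeding; seedlings of 2–10 cm at the one- to two-leaf stage were sprayed to runoff.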

large crabgrass [2] = assay: Test C pre-/postemergence herbicide test; format: in vivo, Digitaria sanguinalis; settings: for Crabgrass, Large plant response rating: 500 g ai/ha
How it was run: as §1

eastern black nightshade = assay: Test C pre-/postemergence herbicide test; format: in vivo, Solanum ptycanthum; settings: for Plant response rating, Nightshade / Plant response rating (0 = no effect, 100 = complete control), Nightshade: preemergence; for Nightshade plant response rating: Preemergence, 500 g ai/ha, scale 0 to 100, 0 no effect, 100 complete control
How it was run: as §1

redroot pigweed = assay: Test A pre-/postemergence herbicide test; format: in vivo, Amaranthus retroflexus
How it was run: as §2

johnsongrass = assay: Test C pre-/postemergence herbicide test; format: in vivo, Sorghum halepense; settings: for Johnsongrass plant response rating: 500 g ai/ha
How it was run: as §1

rice = assay: Test B pre-/postemergence herbicide test; format: in vivo, Oryza sativa; settings: preemergence
How it was run: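 Greenhouse pot assay with simultaneous preemergence (treated seed) and postemergence (2–18 cm seedlings) applications of surfactant-containing, non-phytotoxic solvent formulations. Response scored visually 13–15 days later on a 0–100 scale, 100 meaning complete control.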

[3] = 31 g ai/ha, preemergence, scale 0 to 100
[4] = 125 g ai/ha, scale 0 (no effect) to 100 (complete control), visual, 12 to 14 days, preemergence
[5] = 250 g ai/ha, scale 0 to 100 (0 no effect, 100 complete control), visual, 12 to 14 days, preemergence
[6] = Postemergence, 500 g ai/ha, 0 to 100 scale, 0 no effect, 100 complete control
[7] = Postemergence, 2000 g ai/ha, 0 to 100 scale, 0 no effect, 100 complete control
[8] = Preemergence, 500 g ai/ha, visual rating, 0 to 100 scale (0 no effect, 100 complete control)
[9] = Preemergence, 2000 g ai/ha, 0 to 100 scale, 0 no effect, 100 complete control
[10] = 125 g ai/ha, scale 0 (no effect) to 100 (complete control), visual, 12 to 14 days
[11] = 125 g ai/ha, 0 to 100 scale, 0 is no effect, 100 is complete control
[12] = 62 g ai/ha, preemergence, scale 0 to 100
[13] = Preemergence, scale 0 to 100, 0 no effect, 100 complete control
[14] = Preemergence, 2000 g ai/ha, visual rating, 0 to 100 scale (0 no effect, 100 complete control)
[15] = preemergence, 500 g ai/ha, visual injury, 0 to 100 scale (0 no effect, 100 complete control)
[16] = 500 g ai/ha, visual rating 0-100, 0 no effect, 100 complete control
[17] = Postemergence, 250 g ai/ha, scale 0 to 100, 0 no effect, 100 complete control
[18] = postemergence, 125 g ai/ha, scale 0 to 100
[19] = postemergence, 62 g ai/ha, scale 0 to 100

CCn1nc(C(C)(C)C)cc1C(=O)Nc1cccc(C(=O)NCC2CC2)c1 [Compound 62]
Plant response rating, Corn (corn; [3]): 0
Plant response rating (0 = no effect, 100 = complete control), Corn (corn; 62 g ai/ha, preemergence): 0
Plant response rating, Corn (corn; [4]): 0
Plant response rating, Corn (corn; [5]): 0
Plant response rating, Crabgrass, Large (large crabgrass [1]; [6]): 25
Plant response rating, Crabgrass, Large (large crabgrass [1]; [7]): 60
Crabgrass, Large plant response rating (large crabgrass [1]; [8]): 70
Crabgrass, Large plant response rating (large crabgrass [1]; [9]): 85
Plant response rating, Crabgrass, Large (large crabgrass [2]; [3]): 5
Plant response rating (0 = no effect, 100 = complete control), Crabgrass, Large (large crabgrass [2]; 62 g ai/ha, preemergence): 40
Plant response rating, Crabgrass, Large (large crabgrass [2]; [4]): 90
Plant response rating, Crabgrass, Large (large crabgrass [2]; [5]): 90
Plant response rating, Nightshade (eastern black nightshade; 31 g ai/ha, scale 0 to 100): 80
Plant response rating (0 = no effect, 100 = complete control), Nightshade (eastern black nightshade; 62 g ai/ha): 80
Plant response rating, Nightshade (eastern black nightshade; [10]): 90
Plant response rating, Nightshade (eastern black nightshade; 250 g ai/ha, scale 0 to 100 (0 no effect, 100 complete control), visual, 12 to 14 days): 95
Plant response rating, Pigweed (redroot pigweed; [6]): 100
Plant response rating, Pigweed (redroot pigweed; [7]): 100
Pigweed plant response rating (redroot pigweed; [8]): 100
Pigweed plant response rating (redroot pigweed; [9]): 100
Plant response rating, Johnsongrass (johnsongrass; [3]): 0
Plant response rating (0 = no effect, 100 = complete control), Johnsongrass (johnsongrass; 62 g ai/ha, preemergence): 40
Plant response rating, Johnsongrass (johnsongrass; [4]): 40
Plant response rating, Johnsongrass (johnsongrass; [5]): 70
Plant response rating, Rice (rice; [11]): 0

CCN(CC)C(=O)c1ccnc(NC(=O)c2cc(C(C)(C)C)nn2CC)c1 [Compound 153]
Plant response rating, Corn (corn; [12]): 0
Plant response rating, Corn (corn; [4]): 0
Plant response rating, Corn (corn; [5]): 0
Corn plant response rating (corn; [13]): 0
Crabgrass, Large plant response rating (large crabgrass [1]; [6]): 10
Plant response rating, Crabgrass, Large (large crabgrass [1]; [7]): 20
Crabgrass, Large plant response rating (large crabgrass [1]; [8]): 25
Crabgrass, Large plant response rating (large crabgrass [1]; [14]): 25
Plant response rating, Crabgrass, Large (large crabgrass [2]; [12]): 0
Plant response rating, Crabgrass, Large (large crabgrass [2]; [4]): 0
Plant response rating, Crabgrass, Large (large crabgrass [2]; [5]): 0
Crabgrass, Large plant response rating (large crabgrass [2]; [13]): 80
Plant response rating, Nightshade (eastern black nightshade; 62 g ai/ha, scale 0 to 100): 90
Plant response rating, Nightshade (eastern black nightshade; [10]): 100
Nightshade plant response rating (eastern black nightshade): 100
Pigweed plant response rating (redroot pigweed; [6]): 95
Plant response rating, Pigweed (redroot pigweed; [7]): 100
Pigweed plant response rating (redroot pigweed; [14]): 100
Pigweed plant response rating (redroot pigweed; [15]): 100
Plant response rating, Johnsongrass (johnsongrass; [12]): 0
Plant response rating, Johnsongrass (johnsongrass; [4]): 15
Johnsongrass plant response rating (johnsongrass; [13]): 85
Plant response rating, Rice (rice; [16]): 20
Plant response rating, Rice (rice; [11]): 10

C#CCNC(=O)c1cccc(NC(=O)c2cc(C(C)(C)C)nn2CC)n1 [Compound 147]
Plant response rating (0 = no effect, 100 = complete control), Corn (corn; 62 g ai/ha, preemergence): 0
Plant response rating, Corn (corn; [4]): 0
Plant response rating, Corn (corn; [5]): 0
Corn plant response rating (corn; Postemergence, scale 0 to 100): 15
Plant response rating, Corn (corn; [17]): 10
Corn plant response rating (corn; [13]): 60
Plant response rating, Corn (corn; [18]): 5
Plant response rating, Corn (corn; [19]): 0
Crabgrass, Large plant response rating (large crabgrass [1]; [6]): 40
Plant response rating, Crabgrass, Large (large crabgrass [1]; [7]): 90
Crabgrass, Large plant response rating (large crabgrass [1]; [8]): 85
Crabgrass, Large plant response rating (large crabgrass [1]; [14]): 90
Plant response rating (0 = no effect, 100 = complete control), Crabgrass, Large (large crabgrass [2]; 62 g ai/ha, preemergence): 0
Plant response rating, Crabgrass, Large (large crabgrass [2]; [4]): 50
Plant response rating, Crabgrass, Large (large crabgrass [2]; [5]): 90
Crabgrass, Large plant response rating (large crabgrass [2]; Postemergence, scale 0 to 100): 60
Plant response rating, Crabgrass, Large (large crabgrass [2]; [17]): 10
Crabgrass, Large plant response rating (large crabgrass [2]; [13]): 100
Plant response rating, Crabgrass, Large (large crabgrass [2]; [18]): 0
Plant response rating, Crabgrass, Large (large crabgrass [2]; [19]): 0
Plant response rating (0 = no effect, 100 = complete control), Nightshade (eastern black nightshade; 62 g ai/ha): 40
Plant response rating, Nightshade (eastern black nightshade; [10]): 70
Nightshade plant response rating (eastern black nightshade): 100
Pigweed plant response rating (redroot pigweed; [6]): 90
Plant response rating, Pigweed (redroot pigweed; [7]): 100
Pigweed plant response rating (redroot pigweed; [14]): 100
Pigweed plant response rating (redroot pigweed; [15]): 85
Plant response rating (0 = no effect, 100 = complete control), Johnsongrass (johnsongrass; 62 g ai/ha, preemergence): 0
Plant response rating, Johnsongrass (johnsongrass; [4]): 40
Johnsongrass plant response rating (johnsongrass; Postemergence, scale 0 to 100): 10
Plant response rating, Johnsongrass (johnsongrass; [17]): 10
Johnsongrass plant response rating (johnsongrass; [13]): 80
Plant response rating, Johnsongrass (johnsongrass; [19]): 0
Plant response rating, Rice (rice; [16]): 10
Plant response rating, Rice (rice; [11]): 0
